We go through two compounds from US20220265691A1, “METHODS FOR USE OF GENE EXPRESSION AS AN INDICATOR OF E-SELECTIN INHIBITOR EFFICACY AND CLINICAL OUTCOME FOR MULTIPLE TUMOR TYPES” (GLYCOMIMETICS, INC., priority 2019, published 2022).

Usually IC50 stands for the concentration at which inhibition is half-maximal.

The target in one assay is T1, E-selectin (Homo sapiens, UniProt P16581).
T1 construct: fused on or other part: Immunoglobulin (Ig) part fused to E-selectin as a handle for immobilisation
T1 sequence (P16581 22-175 limits assumed): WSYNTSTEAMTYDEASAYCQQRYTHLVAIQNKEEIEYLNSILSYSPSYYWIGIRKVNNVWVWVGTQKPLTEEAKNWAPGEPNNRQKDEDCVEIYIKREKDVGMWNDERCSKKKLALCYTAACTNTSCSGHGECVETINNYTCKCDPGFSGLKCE
The assay is described as follows: E-Selectin Activity - competitive binding assay (sLea polyacrylamide / immobilized E-selectin/Ig chimera). The following applies: inhibition of sLea conjugate binding to immobilized E-selectin/Ig chimera; read-out: IC50 (E-Selectin Antagonist Activity). The procedure:
The inhibition assay to screen and characterize antagonists of E-selectin is a competitive binding assay, from which IC50 values may be determined. E-selectin/Ig chimera are immobilized in 96 well microtiter plates by incubation at 37° C. for 2 hours. To reduce nonspecific binding, bovine serum albumin is added to each well and incubated at room temperature for 2 hours. The plate is washed and serial dilutions of the test compounds are added to the wells in the presence of conjugates of biotinylated, sLea polyacrylamide with streptavidin/horseradish peroxidase and incubated for 2 hours at room temperature.
To determine the amount of sLe^a bound to immobilized E-selectin after washing, the peroxidase substrate, 3,3′,5,5′ tetramethylbenzidine (TMB) is added. After 3 minutes, the enzyme reaction is stopped by the addition of H3PO4, and the absorbance of light at a wavelength of 450 nm is determined. The concentration of test compound required to inhibit binding by 50% is determined.

For assay [1], the system named is relapsed or refractory AML. The assay is described as follows: Phase I/II trial of Formula I in combination with chemotherapy for AML. Format: in vivo, human. Conditions: for overall survival (OS): Formula I plus chemotherapy. The procedure: Phase I/II trial of Formula I in combination with chemotherapy for AML: A specific glycomimetic antagonist of E-selectin (Formula I) was rationally designed based on the bioactive conformation of sialyl Le^a/x in the binding site of E-selectin. Treatment of AML relapsed/refractory patients with the compound of Formula I and chemotherapy were evaluated for response. In a Phase I trial, 19 patients were treated with the compound of Formula I twice a day at 5 mg/kg (n=6), 10 mg/kg (n=7), and 20 mg/kg doses (n=6), in combination with induction MEC (mitoxantrone, epotoside, and cytarabine) chemotherapy. In a Phase II trial, the treatment regimen comprised one 10 mg/kg dose of the compound of Formula I 24 hours prior to chemotherapy, then twice daily 10 mg/kg doses of the compound of Formula I throughout either MEC (mitoxantrone, etoposide, and cytarabine) or 7+3 (cytarabine for 7 days followed by 3 days of daunorubicin, idarubicin or mitoxantrone) chemotherapy up till 48 hours post-chemotherapy. AML blasts from the patients' bone marrow and peripheral blood were isolated, and the expression of E-selectin ligand on the blasts was measured using immunofluorescence. Patient response to treatment was also assessed.

For `CCC1CC(C(=O)NCCNC(=O)c2cn(CC(COS(=O)(=O)O)(COS(=O)(=O)O)COS(=O)(=O)O)nn2)C[C@@H](O[C@@H]2OC(CO)[C@H](O)C(O[C@@H](CC3CCCCC3)C(=O)O)C2NC(=O)Cn2cc(COCCOCCOCCOCCOCc3cn(CC(=O)NC4C(O[C@@H](CC5CCCCC5)C(=O)O)[C@@H](O)C(CO)O[C@H]4O[C@@H]4CC(C(=O)NCCNC(=O)c5cn(CC(COS(=O)(=O)O)(COS(=O)(=O)O)COS(=O)(=O)O)nn5)CC(CC)C4O[C@@H]4OC(C)[C@@H](O)C(O)C4O)nn3)nn2)C1O[C@@H]1OC(C)[C@@H](O)C(O)C1O` (some centres unmarked) [Compound 206], on E-selectin, the IC50 amounted to 1.6 nM.
`CCC1CC(C(=O)NCCNC(=O)CCOCCOCCOCCOCCOCCOCCOCCOCCOCCOCCOCCOC)C[C@@H](O[C@@H]2O[C@@H](CO)[C@H](O)C(O[C@@H](CC3CCCCC3)C(=O)O)C2NC(C)=O)[C@@H]1OC1O[C@@H](C)[C@H](O)C(O)[C@@H]1O` (some centres unmarked) [compound of Formula I]: the “overall survival (OS)” value in assay [1] (patients with greater than 10% of blasts expressing E-selectin ligand (HECA-452; high expressers)) amounted to 12.7 months; in assay [1] (patients with less than 10% blasts expressing E-selectin ligand (HECA-452; low expressers)), 5.2 months. Further, in assay [1] (patients with relapsed or refractory AML, compound of Formula I plus chemotherapy), the “response rate (CR/CRi)” value is given as 41%. In assay [1] (relapsed or refractory AML, single course of induction, higher than historical controls treated with MEC), the “CR/CRi rate after a single course of induction treatment” value was found to be 47%.
